{"source": "patent US20110257146A1", "about": "“Method of Treating Kcnq Related Disorders Using Organozinc Compounds” (The johns Hopkins University, priority 2006, published 2011)", "key": {"KCNQ2 [1]": {"target": "T1, KCNQ2 (Rattus norvegicus, UniProt O88943)", "experiment": "Whole-cell voltage clamp of CHO cells expressing KCNQ2", "type": "cell-based", "set-up": "expressed in transfected cells; host or cells: CHO cells", "conditions": "for effect on KCNQ2 current amplitude of metal salt added to sodium pyrithione perfusion: metal salt (ZnSO4 10 μM) supplemented to 20 μM sodium pyrithione", "method": "Cell culture and transient transfection—Chinese Hamster Ovary (CHO) cells were grown in 50/50 DMEM/F12 (Cellgro) with 10% FBS (Gibco), 100 U/ml penicillin (Cellgro), 100 μg/ml streptomycin (Cellgro) and 2 mM L-glutamine (Gibco). At 24 hours before transfection, cells were split and plated in 60 mm dishes and were transfected with Lipofectamine2000™ reagent (Invitrogen) according to the manufacturer's instruction. At 24 hours after transfection, cells were split and re-plated onto coverslips coated with poly-L-lysine (Sigma). Plasmid expressing CD4 cDNA as a marker was cotransfected with the channel cDNAs of hKCNQ1 (from Dr. Michael Sanguinetti), hKCNQ4 (from Dr. Vitya Vardanyan), rKCNQ2, rKCNQ3, and hKCNQ5 (from Drs. David McKinnon, Mark Shapiro, and Thomas Jentsch). Prior to recording, anti-CD4 Dynabeads (Dynal. Biotech. Inc.) were added into the medium to allow for identification of the transfected cells. Stable lines expressing Kv2.1, hERG, and Kv4.2 were generated by standard protocols using pcDNA3.1 and maintained at complete medium supplemented with 500 μg/ml G418. The N-type calcium channel stable line was a kind gift from Drs. Diane Lipscombe and David Yue.\n(§1) Electrophysiological Recording—Standard whole-cell recording was used. Pipettes were pulled from borosilicate glass capillaries (TW150-4, World Precision Instruments, Sarasota, Fla.). When filled with the intracellular solution, the pipettes have resistances of […]. During the recording, constant perfusion of extracellular solution was maintained using a BPS perfusion system (ALA, Westbury, N.Y.). Pipette solution contained (mM): KCl 145, MgCl2 1, EGTA 5, HEPES 10, MgATP 5 (pH 7.3); extracellular solution contained (mM): NaCl 140, KCl 3, CaCl2 2, MgCl2 1.5, HEPES 10, glucose 10 (pH 7.4). Current and voltage were recorded using an Axopatch-200A amplifier, filtered at 1 kHz and digitized using a DigiData 1322A with pClamp 9.2 software (Axon Instruments, Foster City, Calif.). Series resistance compensation was also used and set to 60-80%.\nData and Statistical Analysis—Patch-clamp data were preprocessed using Clampfit 9.2 (Axon Instruments, Foster City, Calif.) and then analyzed in Origin 7 (OriginLab, Northampton, Mass.). The activation curve was fitted by the Boltzmann equation: G=(Gmax−Gmin)/[1+exp[(V−V1/2)/S]]+Gmin, where Gmax is the maximum conductance, Gmin is the minimum conductance, V1/2 is the voltage for half of the total numbers of channels to open, and S is the slope factor. The dose response curve was fitted by the Hill equation: E=Emax/(1+(EC50/C)^P), where Emax is the maximum response, C is the drug concentration, EC50 is the drug concentration producing half of the maximum response, and P is the Hill coefficient. The deactivation trace was fitted by the standard exponential equation: I(t)=ΣIi*exp(−t/τi), where I is the current, t is the time and τ is the time constant. Data are presented as means±SE. Significance was estimated using paired two-tailed Student's t-test."}, "TRPM8": {"target": "TRPM8 (Homo sapiens, UniProt Q7Z2W7)", "sequence (Q7Z2W7 whole entry, species assumed)": "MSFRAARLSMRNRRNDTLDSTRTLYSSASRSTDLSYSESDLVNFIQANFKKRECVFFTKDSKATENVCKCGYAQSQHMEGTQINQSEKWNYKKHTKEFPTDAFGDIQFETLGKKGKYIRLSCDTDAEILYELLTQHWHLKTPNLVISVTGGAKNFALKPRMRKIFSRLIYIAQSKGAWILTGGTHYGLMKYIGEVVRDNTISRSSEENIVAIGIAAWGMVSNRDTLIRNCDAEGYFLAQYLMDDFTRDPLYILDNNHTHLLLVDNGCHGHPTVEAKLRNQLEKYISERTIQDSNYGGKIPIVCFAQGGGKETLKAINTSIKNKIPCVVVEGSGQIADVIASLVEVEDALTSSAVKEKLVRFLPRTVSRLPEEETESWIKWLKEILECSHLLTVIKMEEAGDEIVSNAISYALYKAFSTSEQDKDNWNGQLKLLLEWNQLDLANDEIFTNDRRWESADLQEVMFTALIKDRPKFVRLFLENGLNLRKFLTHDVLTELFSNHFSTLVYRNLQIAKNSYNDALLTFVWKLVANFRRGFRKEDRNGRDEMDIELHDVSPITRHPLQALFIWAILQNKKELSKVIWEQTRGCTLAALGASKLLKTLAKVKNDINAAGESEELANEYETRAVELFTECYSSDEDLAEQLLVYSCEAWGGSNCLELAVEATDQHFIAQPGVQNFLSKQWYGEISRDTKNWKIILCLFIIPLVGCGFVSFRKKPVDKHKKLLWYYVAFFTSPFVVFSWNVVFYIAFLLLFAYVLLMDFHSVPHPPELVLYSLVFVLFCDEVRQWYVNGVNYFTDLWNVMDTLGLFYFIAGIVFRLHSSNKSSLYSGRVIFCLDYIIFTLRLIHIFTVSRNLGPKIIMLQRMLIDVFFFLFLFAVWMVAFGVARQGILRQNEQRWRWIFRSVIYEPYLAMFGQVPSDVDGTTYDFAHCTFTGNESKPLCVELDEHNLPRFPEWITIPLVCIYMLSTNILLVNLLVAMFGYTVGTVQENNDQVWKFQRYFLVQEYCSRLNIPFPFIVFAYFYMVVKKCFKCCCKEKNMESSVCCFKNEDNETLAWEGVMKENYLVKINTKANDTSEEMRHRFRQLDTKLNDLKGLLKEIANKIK", "conditions": "shift from 32 mV; cited from earlier work"}, "KCNQ2(R207W)": {"target": "T2, KCNQ2(R207W) (Rattus norvegicus, UniProt O88943, R207W)", "T2 construct": "expressed in transfected cells; host or cells: CHO cells, transient", "experiment": "Whole-cell recording of KCNQ2(R207W) BFNC mutant in CHO cells", "type": "cell-based", "conditions": "retigabine", "method": "(§2) FIG. 11. ZnPy effects on BFNC mutant channels expressed in CHO cells. A. whole-cell currents of KCNQ2(R207W), KCNQ2(Y284C), and KCNQ2(A306T) were recorded in the absence (left) and presence (right) of 10 μM ZnPy, Vh was −80 mV, in 10 mV voltage steps from −70 mV to +50 mV. B. a histogram plotting potentiation effects on KCNQ2 wild type (wt) and BFNC mutants (R207W, Y284C and […]) by ZnPy (filled box) and retigabine (open box) (n≧4, * p<0.001, ** p<0.05).\n(§3) Mutagenesis—Starting from KCNQ cDNAs, the KCNQ2 point mutants were constructed by recombinant PCR and verified by sequencing.\nas §1, with “Series resistance compensation was also used and set to 60-80%.” left out"}, "KCNQ2(A306T)": {"target": "T3, KCNQ2(A306T) (Rattus norvegicus, UniProt O88943, A306T)", "T3 construct": "expressed in transfected cells; host or cells: CHO cells", "experiment": "Whole-cell recording of KCNQ2(A306T) mutant in CHO cells", "type": "cell-based", "conditions": "retigabine", "method": "FIG. 9. KCNQ2 point mutants selectively lose ZnPy sensitivity. […] Each mutation site was indicated based on the predicted transmembrane regions. Dashed line indicates the potentiation level of wt KCNQ2 channel in the absence of ZnPy. […] C. Modeling of the S5-pore-S6 region of KCNQ2.\nas §2, §3, §1"}, "KCNQ2(Y284C)": {"target": "T4, KCNQ2(Y284C) (Rattus norvegicus, UniProt O88943, Y284C)", "T4 construct": "expressed in transfected cells; host or cells: CHO cells, transient", "experiment": "Whole-cell recording of KCNQ2(Y284C) BFNC mutant in CHO cells", "type": "cell-based", "conditions": "retigabine", "method": "as §2, §3\nas §1, with “Series resistance compensation was also used and set to 60-80%.” left out"}, "[2]": {"experiment": "In vivo Geller conflict test for anxiolytics", "set-up": "species or system rats", "conditions": "positive control", "method": "In the Geller conflict test (see, e.g., Geller & Seifter, Psychophamracologia 1:482-492 (1960: Pollard & Howard, Psychopharmacology 62:117-121 (1979)), rats are trained to press a lever to receive food pellets during daily 1 hour sessions. The sessions are divided into punished and unpunished phases. During the four, three-minute punished periods, a light signals that each lever press will produce both a pellet and a foot shock (punishment), which reduces lever pressing. The number of punished lever presses on test days (when test compound is administered) is compared to the mean on baseline days. The positive control, chlordiazepoxide, increases punished lever pressing by >50%. A compound that produces an increase of approximately 40% or greater is generally considered to be of interest as a rapid-onset anxiolytic.\nA compound with selective KCNQ1 channel opening activity increases punished responding in a dose-dependent manner. The increase in punished responding is statistically significant (paired t-test p<0.05) at 10, 17, 30, and 56 mg/kg PO with increases of 40% or greater at 30 and 56 mg/kg."}, "KCNQ2 [3]": {"target": "T1, KCNQ2", "experiment": "Single channel outside-out patch recording of KCNQ2", "type": "cell-based", "set-up": "expressed in transfected cells; host or cells: CHO cells", "conditions": "50 μM linopirdine", "method": "For single channel recording procedure, outside-out patch recording was used. The pipettes had resistances of 7-15 MΩ when filled with the intracellular solution of the following composition (mM): KCl 145, MgCl2 1, EGTA 5, HEPES 10, MgATP 5 (pH 7.3). Extracellular solution contained (mM): NaCl 150, KCl 5, CaCl2 2, MgCl2 1, HEPES 10, glucose 10 (pH 7.4). Current and voltage were recorded using an Axopatch-200B amplifier, sample at 4 kHz and filtered at 200 Hz, and digitized using a DigiData 1322A with pClamp 9.2 software (Axon Instruments, Foster City, Calif.).\nThe open probability (Po) and single channel current (i) were calculated by fitting all-point histograms with single- or multi-Gaussian curves. The ratio of the area under the fitted ‘open’ Gaussian to the total area under the entire Gaussian was taken as Po, and the difference between the fitted “closed” and “open” peaks was taken as i, single channel conductance (γ) was calculated by the equation: γ=i/(V−V5)."}, "hippocampal neurons": {"tested_on": "hippocampal neurons", "experiment": "Membrane potential and elicited action potentials of isolated hippocampal neurons", "type": "cell-based, rat", "conditions": "15 μM linopirdine added after 10 μM ZnPy", "method": "FIG. 10. ZnPy potentiation of native M-current. A. M current recorded from an isolated rat dorsal root ganglion neuron, Vh was −60 mV, stepped to −20 mV, followed by a step to −50 mV, and stepped back to −20 mV. B. Histograms show M-current amplitudes in the presence and absence of 10 μM ZnPy (n=10, * p<0.001). M-current amplitudes were measured by fitting the IM relaxation with an exponential equation. The recording bath solution includes 1 μM TTX, 0.2 mM TEA, 1 mM 4-AP, 50 μM CNQX, and 10 μM bicuculline. C. Membrane potential of an isolated hippocampal neuron was monitored when 10 μM ZnPy was applied in bath solution followed by the addition of 15 μM linopirdine. D. Action potentials elicited by 200 pA current injection to a patched hippocampal neuron. The ZnPy treatments are as indicated.\nNeuron Culture—Dorsal root ganglia (DRG) was collected from fourteen-day-old CD rat and incubated in collagenase (sigma, 500 U/ml, 15 min) and then trypsin (Sigma, 1 mg/ml, 30 min) at 37° C. Single DRG neurons were isolated by mechanical trituration with a fire-polished glass Pasteur pipette. Hippocampal tissue was dissected out from CD rat postnatal day 0. The tissue was digested with papain (Worthington Biochem, 20 U/ml, 30 min) and resuspended into single cells. The single-cell suspension was plated onto a monolayer of glial cells that were growing on coated cover slips. Cytosine-1-D-arabinofuranoside at 5 μM was added into the culture medium 24-48 hours later to arrest glial cell proliferation. The culture medium consisted of Neurobasal™ medium with B-27 supplement (Gibco), penicillin/streptomycin and 2 mM L-glutamine. All cells were maintained at 37° C. with 5% CO2 prior to recording.\nElectrophysiological Recording—Standard whole-cell recording was used. Pipettes were pulled from borosilicate glass capillaries (TW150-4, World Precision Instruments, Sarasota, Fla.). […] Current and voltage were recorded using an Axopatch-200A amplifier, filtered at 1 kHz and digitized using a DigiData 1322A with pClamp 9.2 software (Axon Instruments, Foster City, Calif.). […]"}}, "note": "Like-named read-outs stand apart in the source and are kept apart here."}
{"smiles": "Oc1c(I)cc(I)c2cccnc12", "note": "[5,7-diiodo-8-hydroxyquinoline]", "values": [{"measurement": "potentiation of KCNQ2 current amplitude by zinc ionophores", "setting": "KCNQ2 [1]; +50 mV", "value": "None displayed any potentiation effect on current amplitude"}]}
{"smiles": "[Cl][Cd][Cl]", "note": "[CdCl2]", "values": [{"measurement": "effect on KCNQ2 current amplitude of metal salt added to sodium pyrithione perfusion", "setting": "KCNQ2 [1]", "value": "did not induce any potentiation"}]}
{"smiles": "O=S(=O)([O-])[O-].[Cu+2]", "note": "[CuSO4]", "values": [{"measurement": "effect on KCNQ2 current amplitude of metal salt added to sodium pyrithione perfusion", "setting": "KCNQ2 [1]", "value": "did not induce any potentiation"}]}
{"smiles": "CC1CCC(C(C)C)C(O)C1", "note": "(centres unmarked) [Menthol]", "values": [{"measurement": "V1/2 after menthol binding", "setting": "TRPM8", "value": "−31", "unit": "mV"}]}
{"smiles": "Oc1ccc(N=Nc2ccccn2)c(O)c1", "note": "[PAR, 4-(2)-(pyridylazo) resorcinol]", "values": [{"measurement": "effect on potentiation induced by sodium pyrithione plus ZnSO4", "setting": "KCNQ2 [1]; 100 μM PAR", "value": "abolished"}, {"measurement": "effect on KCNQ2 channel activity, compound alone", "setting": "KCNQ2 [1]; PAR itself", "value": "had no effect on KCNQ2 channel activity"}]}
{"smiles": "CCOC(=O)Nc1ccc(NCc2ccc(F)cc2)cc1N", "note": "[Retigabine, retigabine]", "values": [{"measurement": "current potentiation", "setting": "KCNQ2(R207W)", "value": "< 50", "unit": "%"}, {"measurement": "current potentiation", "setting": "KCNQ2(A306T)", "value": "< 50", "unit": "%"}, {"measurement": "current potentiation", "setting": "KCNQ2(Y284C)", "value": "< 50", "unit": "%"}]}
{"smiles": "CC[N+](CC)(CC)CC", "note": "[TEA, tetraethylammonium]", "values": [{"measurement": "effect on KCNQ2 current", "setting": "KCNQ2 [1]", "value": "completely blocked"}]}
{"smiles": "O=S(=O)([O-])[O-].[Zn+2]", "note": "[ZnSO4]", "values": [{"measurement": "effect on KCNQ2 current amplitude of metal salt added to sodium pyrithione perfusion", "setting": "KCNQ2 [1]", "value": "marked increase in current amplitude"}]}
{"smiles": "[Zn+2]", "note": "[Zn^2+]", "values": [{"measurement": "effect on KCNQ2 channel, zinc ion alone", "setting": "KCNQ2 [1]", "value": "cannot induce any detectable effect"}]}
{"smiles": "CNC1=Nc2ccc(Cl)cc2C(c2ccccc2)=[N+]([O-])C1", "note": "[chlordiazepoxide]", "values": [{"measurement": "increase of punished lever pressing", "setting": "[2]", "value": "> 50", "unit": "%"}]}
{"smiles": "O=C1N(c2ccccc2)c2ccccc2C1(Cc1ccncc1)Cc1ccncc1", "note": "[linopirdine]", "values": [{"measurement": "effect on single channel activity", "setting": "KCNQ2 [3]", "value": "fully blocked"}, {"measurement": "effect on ZnPy-induced hyperpolarization", "setting": "hippocampal neurons", "value": "completely abolished the hyperpolarization of membrane potential"}, {"measurement": "effect on KCNQ2 current", "setting": "KCNQ2 [1]; 30 μM linopirdine, +50 mV", "value": "rapid inhibition"}]}
{"smiles": "[Na+].[O-][n+]1ccccc1[S-]", "note": "[sodium pyrithione]", "values": [{"measurement": "effect on KCNQ2 current amplitude", "setting": "KCNQ2 [1]", "value": "no change in current amplitude"}]}
